Measurements from patent US20020052390A1, “METHODS AND MATERIALS FOR TREATING AND PREVENTING INFLAMMATION OF MUCOSAL TISSUE” (priority 1997, published 2002).
Converted amounts (≈) assume the structure as drawn. “And” between values parts separate entries of the source, which are not always exact repeats. Equal entries are not always repeated. Where two headings read alike, the source gives them in different places.

Assays:
[1] = tested on: patient with rhinosinusitis; experiment: Single patient study, one-sided then two-sided amphotericin B irrigation, RAST assay to Alternaria; type: in vivo, human
Description: In addition, the previously detected fungal load in the initially untreated side (right side) was sufficient to eventually cause presentation of visual or palpable rhinosinusitis symptoms in that initially untreated side. Further, the fungal organisms present in the initially untreated side (right side) induced high IgE titers, as shown by IgE readings from the RAST assays, independent of concurrent reduction of fungal organisms by antifungal treatment applied to the left side. In this case, a reduction of IgE readings from the RAST assays was only observed after irrigating both sides with an antifungal agent. Thus, the reduction of IgE and the prevention of disease symptoms coincided with the treatment of both sides with an antifungal agent.

Trichoderma = experiment: MIC, macro broth dilution technique (NCCLS), isolates from rhinosinusitis patients; type: cell-based; conditions: 48 hour MIC reading
Description: (§1) The following procedure was used to determine effective antifungal agents as well as effective concentrations of antifungal agents such that the fungal organisms isolated from patients can be prevented from growing or killed.
(§2) Seventeen fungal isolates were collected from eight rhinosinusitis patients and tested for susceptibility against amphotericin B, ketoconazole, and itraconazole. Each antifungal agent was tested on these fungal isolates using the macro broth dilution technique according to the National Committee on Clinical Laboratory Standards (NCCLS) protocol. […] The results from this procedure provided an estimate of the efficacy of antifungal agents against specific fungal isolates in vitro.

Geotrichum = experiment: as above; type: cell-based; conditions: 48 hour MIC reading
Description: as §1, §2

[2] = tested on: patients with chronic asthma; experiment: Chronic asthma symptoms in patients of the Example 2 study (Example 5); type: in vivo, human
Description: One hundred and thirty-two consecutive rhinosinusitis patients were entered into a study to evaluate the use of an antifungal agent to treat non-invasive fungus-induced rhinosinusitis. […] The 125 non-invasive fungus-induced rhinosinusitis patients were started on an antifungal treatment of about 20 mL of an amphotericin B solution per nostril, two to four times daily for at least three months. The concentration of the amphotericin B solution was about 100 mg per liter of saline or water. A 20 mL bulb was used by the patient to mucoadminister the amphotericin B solution into the patient's nasal-paranasal anatomy. Data were compiled for 53 of the patients who had returned for their three month follow-up analysis.

[3] = tested on: non-invasive fungus-induced rhinosinusitis patients; experiment: Itraconazole nasal irrigation (Example 7); type: in vivo, human; conditions: for adverse local reaction to nasal irrigations: third patient
Description: Three non-invasive fungus-induced rhinosinusitis patients (person, person, and person) were instructed to perform nasal irrigation with an itraconazole solution. The itraconazole solution contained about 100 mg of itraconazole per L of solution (10% PEG-400 in sterile water) and was prepared as described herein. […] Each patient reported marked improvement in symptoms within two weeks of starting the itraconazole irrigations (symptom scores: -1 to +2 and -1 to +1).
After treatment with itraconazole, that patient reported symptom improvement (symptom score: from -1 to 0).

[4] = tested on: non-invasive fungus-induced rhinosinusitis patient; experiment: Eosinophil count in mucosal biopsies after amphotericin B irrigations (Example 4); type: in vivo, human
Description: A person was diagnosed with non-invasive fungus-induced rhinosinusitis and instructed to perform amphotericin B irrigations twice a day. After nine months of amphotericin B irrigations, the patient underwent sinus surgery for further improvement. During the surgery mucosal biopsies were collected and the eosinophil count compared to the those obtained from biopsies collected from the patient during a surgery prior to the antifungal treatment.

[5] = tested on: fungal organisms within their mucus; experiment: Analysis of mucus samples of non-responding patients for resistance; type: cell-based; conditions: five of the nine non-responding patients
Description: Eleven of the 53 patients went from endoscopic evaluation stage 2 or 3 to stage 1 after three months. […] Five of the nine non-responding patients had previously collected mucus samples that were available for examination.

[6] = tested on: non-invasive fungus-induced rhinosinusitis patients; experiment: Patient data collected during a one week period (amphotericin B nasal irrigations); type: in vivo, human; set-up: Endoscopy Score B / Endoscopy Score A / Symptom Score B: scale not given here
Description: In addition to patient interviewing, CT scan analysis, visual examination, and fungal culture analysis, two types of evaluations were used to score the success of the treatment: an endoscopic evaluation and a patient symptom evaluation. These evaluations were scored as follows:
Only previously seen patients that were instructed to use the antifungal amphotericin B nasal irrigations were entered into this study.
During a one week period, twenty patients returned to the physician's office (Table II). The average age of the returning patients was 47 years (range 16-74 years). The patients were using the amphotericin B irrigations for an average duration of about six months (range 1-16 months). […] In addition, some patients were using topical and systemic steroid therapy. Further, some patients were using an antibiotic nasal irrigation in addition to the antifungal irrigations. The antibacterial solution contained 80 mg gentamicin per L saline (Wilson's solution). Some patients mixed the antibacterial solution with the antifungal solution and then performed the nasal irrigations while others used each solution separately in a sequential manner. Some patients also had other diseases including asthma (15 of the 20 patients) and colitis (2 of the 20 patients).

[7] = tested on: non-invasive fungus-induced rhinosinusitis patients; experiment: Amphotericin B nasal irrigation study, three month follow-up (Example 2); type: in vivo, human
Description: In addition to patient interviewing, CT scan analysis, visual examination, and fungal culture analysis, two types of evaluations were used to score the success of the treatment: an endoscopic evaluation and a patient symptom evaluation.

[8] = tested on: non-invasive fungus-induced rhinosinusitis patients; experiment: Amphotericin B irrigations in patients without previous nasal surgery (Example 3); type: in vivo, human
Description: A person was diagnosed with non-invasive fungus-induced rhinosinusitis and instructed to perform amphotericin B irrigations twice a day.
A person was diagnosed with non-invasive fungus-induced rhinosinusitis and instructed to perform amphotericin B irrigations twice a day, which was later increased to four times a day.
A person was diagnosed with non-invasive fungus-induced rhinosinusitis and instructed to perform amphotericin B irrigations twice a day. This patient had been given intramuscular steroid shots every 3 to 8 months with the last shot being administered about seven months prior to starting the amphotericin B irrigations.

Candida = experiment: MIC, macro broth dilution technique (NCCLS), isolates from rhinosinusitis patients; type: cell-based; conditions: 48 h, 48 hour MIC reading, each table line is one isolate
Description: as §1, §2

Penicillium = experiment: as above; type: cell-based; conditions: 48 h, 48 hour MIC reading, each table line is one isolate
Description: as §1, §2

Cladosporium = experiment: as above; type: cell-based; conditions: 48 h, 48 hour MIC reading, each table line is one isolate
Description: as §1, §2

[9] = Concentrations of itraconazole in solution by HPLC; type: physicochemical; conditions: read-out: Soluble Itraconazole Concentration
Description: Itraconazole formulations were made by dissolving itraconazole into polyethylene glycol (PEG) to form an itraconazole stock solution. […] Typically, PEG 400 was used to dissolve the itraconazole. Once dissolved, the stock solution was filtered to remove any insoluble material. Then, the stock solution was prepared for use by dilution with sterile water. […] One liter of heated (70° C.) PEG-400 was added to the graduated cylinder containing the itraconazole. The mixture was then placed onto a stirring hot plate and maintained at 70° C. for 30 minutes. After 30 minutes, the hot suspension was filtered through a urine stone filter into a glass container and allowed to cool to room temperature. Once cooled, 100 mL of the filtered solution was placed into an empty plastic bottle. Then, 900 mL of sterile water was added and the solution mixed. Once mixed, one drop of flavoring was added (peppermint oil). […] The following concentrations of itraconazole were determined for each indicated solution by HPLC (Table III).

[10] = Oral itraconazole capsule, drug remaining in the bowel lumen (Example 10); type: in vivo, human; conditions: 100 mg capsule before bedtime, two hours after last meal, without cola
Description: Three out of five consecutive patients with chronic rhinosinusitis reported having a history of colitis. […] Each patient was instructed to take the capsule before bedtime a minimum of two hours after their last meal and without any cola. Food and cola beverages increase absorption of the drug.

[11] = tested on: patient with asthma symptoms; experiment: Itraconazole nasal irrigation in an asthma patient, pulmonary function (Example 8); type: in vivo, human; conditions: before antifungal treatment
Description: Sputum and nasal-paranasal mucus samples were collected and analyzed.
The concentration of the itraconazole solution was about 100 mg per liter. After a few weeks, the patient took their last course of systemic steroids. About two months after stopping the systemic steroids, the patient also stopped using the topical steroids as well as the bronchodilator.

[12] = after antifungal treatment (1-16 months, 1-2 x day), each table line is one patient
[13] = before antifungal treatment, each table line is one patient
[14] = patient symptom evaluation after treatment, 53 patients
[15] = sixteen days after starting the itraconazole irrigations

C[C@@H]1[C@H](O)[C@@H](C)/C=C/C=C/C=C/C=C/C=C/C=C/C=C/[C@H](O[C@@H]2O[C@H](C)[C@@H](O)[C@H](N)[C@@H]2O)C[C@@H]2O[C@](O)(C[C@@H](O)C[C@@H](O)[C@H](O)CC[C@@H](O)C[C@@H](O)CC(=O)O[C@H]1C)C[C@H](O)[C@H]2C(=O)O [Amphotericin B, amphotericin B]
RAST reading to Alternaria ([1]; after right-side surgery and treatment of both sides for about seven weeks): 4.47 KU/L
clinical status ([1]; after treatment of both sides for about seven weeks): symptom-free
MIC (Trichoderma): 4 µg/mL (≈ 4.33 µM)
MIC (Geotrichum): 0.1 µg/mL (≈ 0.108 µM)
asthmatic patients declaring an improvement or complete elimination of asthma symptoms ([2]; after three months of antifungal treatment, 37 asthmatic patients): 28 of the 37
patients with improved pulmonary function (pulmonary function test before and after) ([2]; four patients tested): all four
patients who stopped taking their asthma medication ([2]; of the 28 patients no longer exhibiting asthma symptoms): 26 of the 28
adverse local reaction to nasal irrigations [3]: burning sensation
eosinophil count in mucosal biopsies ([4]; all the sinuses except the frontal, after nine months of irrigations twice a day): < 5%
eosinophil count in the frontal sinus biopsy ([4]; frontal sinus (obstructed, irrigation presumably did not reach it), after nine months): 10%
susceptibility of fungal organisms in mucus of non-responding patients [5]: resistant
Endoscopy Score A [6, 12]: 0 (10×) and 3 (5×) and 1 (2×)
Symptom Score A [6, 12]: +1 (6×) and +2 (6×) and 0 (6×) and −2 and 1
Endoscopy Score B [6, 13]: 1 (3×) and 2 (5×) and 3 (10×) and 0
Symptom Score B [6, 13]: −1 (14×) and −2 (6×)
endoscopic evaluation of rhinosinusitis condition ([6]; most of twenty patients): observable improvement
patients who went from endoscopic evaluation stage 2 or 3 to stage 0 ([7]; about 20 mL amphotericin B solution (about 100 mg per liter) per nostril, two to four times daily, after three months, 53 patients): 33 of the 53
CT scan finding ([7]; one patient with bilateral rhinosinusitis, 20 mL (100 mg/L) per nostril two times daily, after four months): complete disappearance of opacity and symptoms characteristic of rhinosinusitis
patients giving themselves symptom stage 0 [7, 14]: six of the 53
patients giving themselves symptom stage 1 [7, 14]: three of the 53
patients giving themselves symptom stage 2 [7, 14]: 44 of the 53
patients who did not respond to the treatment (endoscopic evaluation) ([7]; same regimen, after three months, 53 patients): nine
number of different fungal species in mucus after treatment ([7]; several patients, mucus cultured before and after antifungal treatment): remarkably reduced
endoscopic score after treatment ([8]; amphotericin B irrigations twice (to four times) a day for four to sixteen months): 0
symptom score before treatment ([8]; patients without previous nasal surgery): −1

CCC(C)n1ncn(-c2ccc(N3CCN(c4ccc(OCC5COC(Cn6cncn6)(c6ccc(Cl)cc6Cl)O5)cc4)CC3)cc2)c1=O (centres unmarked) [Itraconazole, itraconazole]
MIC (Candida): 0.03 µg/mL (≈ 0.0425 µM)
MIC (Penicillium): 0.5 µg/mL (≈ 0.709 µM)
MIC (Cladosporium): 0.125 µg/mL (≈ 0.177 µM)
solubility ([9]; PEG-400, organic solvent or mixture, 500 mg Itraconazole powder AS into 250 mL PEG-400 (stock solution)): 1950 µg/mL (≈ 2760 µM)
solubility at 30 min ([9]; PEG-400, organic solvent or mixture, 2000 mg Itraconazole from capsules into 1 L PEG-400 (stock solution)): 1840 µg/mL (≈ 2610 µM)
solubility ([9]; PEG-400/sterile water solution, aqueous with cosolvent or surfactant or cyclodextrin, kinetic from dmso stock, 100 mL capsule stock solution diluted with 900 mL sterile water): 113 µg/mL (≈ 160 µM)
solubility ([9]; PEG-400/sterile water solution, aqueous with cosolvent or surfactant or cyclodextrin, kinetic from dmso stock, 100 mL capsule stock solution plus 25 mL PEG-400 diluted with 875 mL sterile water): 155 µg/mL
solubility ([9]; PEG-400/sterile water solution, aqueous with cosolvent or surfactant or cyclodextrin, kinetic from dmso stock, 100 mL capsule stock solution plus 150 mL PEG-400 diluted with 750 mL sterile water): 179 µg/mL
solubility ([9]; PEG-400/sterile water solution, aqueous with cosolvent or surfactant or cyclodextrin, kinetic from dmso stock, 100 mL powder AS stock solution diluted with 900 mL sterile water): 85 µg/mL (≈ 120 µM)
symptom score before itraconazole irrigations ([3]; itraconazole solution about 100 mg per L (10% PEG-400 in sterile water)): -1
endoscopic score, left side, before ([3]; one patient): 1
endoscopic score, right side, before ([3]; one patient): 1
endoscopic score, left side, after [3, 15]: 1
endoscopic score, right side, after [3, 15]: 0
adverse local reaction to nasal irrigations [3]: did not have any adverse local reaction
itraconazole that should remain in the bowel lumen [10]: about 50%
forced expiratory volume in 1 second (FEV1) before treatment [11]: 3.34 L
forced vital capacity (FVC) before treatment [11]: 3.99 L
maximal forced expiratory flow (FEFmax) before treatment [11]: 9.1 liter per second
maximum voluntary ventilation (MVV) before treatment [11]: 119 liter per minute

CC(=O)N1CCN(c2ccc(OCC3COC(Cn4ccnc4)(c4ccc(Cl)cc4Cl)O3)cc2)CC1 (centres unmarked) [Ketoconazole, ketoconazole]
MIC (Trichoderma; read-out: MIC): 50 µg/mL (≈ 94.1 µM)
MIC (Geotrichum; read-out: MIC): 0.05 µg/mL (≈ 0.0941 µM)
